In patent US9795601B2, “Compositions and methods for cancer treatment” (BIOVISTA, INC., priority 2010, dated 2017):
pIC50: −log10 of the molar value.

Key:
Format in all cases: cell-based
C32 (Melanoma) = assay: Cancer cell lines assay (Alamar Blue, day 5), C32; conditions: Homo sapiens, C32 cells
Method: (§1) EXAMPLE. Cancer cell lines assay. Compounds are assayed for IC50 over a range of 50 nM to 1 mM, in triplicate, in standard 96-well plates. Initially, the number of cells in each line to plate on day 0 is determined, in order to have <80% confluency on day 5. Cells are plated on day 0. Cells are allowed to adhere 4 hours prior to adding the compound. On day 5 Alamar Blue is added to the media of the cells at 10% of the total volume of the well and incubated for approximately 4 hours at tissue culture conditions. The Alamar Blue reagent consists of an oxidation-reduction indicator that yields a colorimetric change and a fluorescent signal in response to metabolic activity. The dose response curves is evaluated in a BioTek Synergy 2 plate reader. The readout fluorescence values are then be exported to spreedsheet software, such as Microsoft Excel or GraphPad, and are graphed to show the reduction in relative cell number in response to compounds added to culture. Maximum inhibition is expressed as the maximum of:
(§2) [formula] over all dosages tested for each drug.
(§3) EXAMPLE. Linezolid is diluted in DMSO. One vial is thawed and administered on day 0, at concentrations 10 μM to 1 mM. Paclitaxel (0.1 μM) is used as a positive control. DMSO alone is used as a negative control. […]

HT-144 (Melanoma) = assay: Cancer cell lines assay (Alamar Blue, day 5), HT-144; conditions: Homo sapiens
Method: as §1, §2
(§4) EXAMPLE. Linezolid is diluted in DMSO. One vial is thawed and administered on day 0, at concentrations 10 μM to 1 mM. Paclitaxel (0.1 μM) is used as a positive control. DMSO alone is used as a negative control. On day 5 Alamar Blue is added to the media of the cells at 10% of the total volume of the well and incubated for approximately 4 hours at tissue culture conditions.

A172 (Malignant glioma) = assay: Cancer cell lines assay (Alamar Blue, day 5), A172; conditions: Homo sapiens
Method: as §1, §2, §4

SW-579 (Thyroid Cancer) = assay: Cancer cell lines assay (Alamar Blue, day 5), SW-579; conditions: SW579; SW-579 cells, Linezolid concentration 412 μM, negative control DMSO, p 0.0490; read-out: Linezolid % Maximum inhibition relative to negative control
Method: as §1, §2, §3

| pIC50 (HT-144 (Melanoma); 120 h, HT-144 (Melanoma) cells, Alamar Blue on day 5, read-out: Linezolid IC50) | pIC50 (A172 (Malignant glioma); A 172, 120 h, A172 (Malignant glioma) cells, Alamar Blue on day 5, read-out: Linezolid IC50) | SMILES | inhibition at 1000 µM (C32 (Melanoma); Linezolid concentration 1 mM, negative control DMSO, p 0.000720, read-out: Linezolid % Maximum inhibition relative to negative control) | inhibition at 1000 µM (HT-144 (Melanoma); HT-144 cells, Linezolid concentration 1 mM, negative control DMSO, p 0.00250, read-out: Linezolid % Maximum inhibition relative to negative control) | inhibition at 1000 µM (A172 (Malignant glioma); A 172, A172 cells, Linezolid concentration 1 mM, negative control DMSO, p 6 × 10^−6, read-out: Linezolid % Maximum inhibition relative to negative control) | inhibition at 412 µM (SW-579 (Thyroid Cancer)) | inhibition at 0.1 µM (C32 (Melanoma); 0.1 μM paclitaxel (positive control), read-out: Paclitaxel % Maximum inhibition relative to negative control) | inhibition at 0.1 µM (HT-144 (Melanoma); HT-144 cells, 0.1 μM paclitaxel (positive control), read-out: Paclitaxel % Maximum inhibition relative to negative control) | inhibition at 0.1 µM (A172 (Malignant glioma); A 172, A172 cells, 0.1 μM paclitaxel (positive control), read-out: Paclitaxel % Maximum inhibition relative to negative control) |
| --- | --- | --- | --- | --- | --- | --- | --- | --- | --- |
| 3.30 | 3.15 to 3.22 | CC(=O)NC[C@H]1CN(c2ccc(N3CCOCC3)c(F)c2)C(=O)O1 [Linezolid] | 26.1% | 90.7% | 81.8% | 14.5% |  |  |  |
|  |  | CC(=O)O[C@H]1C(=O)[C@@]2(C)[C@H]([C@H](OC(=O)c3ccccc3)[C@]3(O)C[C@H](OC(=O)[C@H](O)[C@@H](NC(=O)c4ccccc4)c4ccccc4)C(C)=C1C3(C)C)[C@]1(OC(C)=O)CO[C@@H]1C[C@@H]2O [Paclitaxel] |  |  |  |  | 90.8% | 86.9% | 92.9% |
